Laboratory results from ChEMBL document CHEMBL3639058, “Glycine compound” (2014).

Experiments:
[1] = target: T1, Amine oxidase [copper-containing] 3 (Rattus norvegicus, UniProt O08590); assay: (§1) Inhibition Assay: A rat VAP-enzyme 1 (SSAO) activity was measured by a radiochemistry-enzymatic assay using 14C-benzylamine as an artificial substrate. An enzyme suspension prepared from CHO (Chinese Hamster Ovary) cells stably expressing a rat VAP-enzyme 1 (SSAO) was preincubated with the compound of the present invention in a 96-well microplate at room temperature for 30 minutes. Subsequently, the enzyme suspension was incubated with 14C-benzylamine (a final concentration of 1×10−5 mol/L) to a final volume of […] at 37° C. for 1 hour. The enzymatic reaction was stopped by the addition of 2 mol/L (50 μL) of citric acid. The oxidation products were extracted directly in a 200-μL toluene scintillator, and the radioactivity was measured with a scintillation spectrometer.
T1 sequence (O08590 whole entry): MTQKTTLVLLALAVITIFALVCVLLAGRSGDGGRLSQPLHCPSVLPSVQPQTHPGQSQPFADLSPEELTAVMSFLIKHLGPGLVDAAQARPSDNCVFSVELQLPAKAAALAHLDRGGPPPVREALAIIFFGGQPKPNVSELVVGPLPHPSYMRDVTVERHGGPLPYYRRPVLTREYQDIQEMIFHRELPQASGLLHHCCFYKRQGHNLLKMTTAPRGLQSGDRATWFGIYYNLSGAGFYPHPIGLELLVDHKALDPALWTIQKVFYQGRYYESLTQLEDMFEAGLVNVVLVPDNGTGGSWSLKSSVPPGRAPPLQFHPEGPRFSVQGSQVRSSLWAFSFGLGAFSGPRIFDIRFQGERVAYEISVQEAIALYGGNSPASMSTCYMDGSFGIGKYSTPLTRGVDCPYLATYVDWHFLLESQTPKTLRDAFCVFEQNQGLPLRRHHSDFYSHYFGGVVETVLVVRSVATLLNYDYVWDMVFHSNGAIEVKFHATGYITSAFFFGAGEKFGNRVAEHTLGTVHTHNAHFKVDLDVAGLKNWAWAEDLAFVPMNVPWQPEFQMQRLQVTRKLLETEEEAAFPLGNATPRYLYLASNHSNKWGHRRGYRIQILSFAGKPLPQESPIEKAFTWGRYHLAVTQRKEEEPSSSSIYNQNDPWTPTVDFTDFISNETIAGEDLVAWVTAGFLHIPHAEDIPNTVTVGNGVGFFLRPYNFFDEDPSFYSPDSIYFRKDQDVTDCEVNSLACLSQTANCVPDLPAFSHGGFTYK

[2] = target: T2, Amine oxidase [copper-containing] 3 (Homo sapiens, UniProt Q16853); assay: as §1, with “human VAP-1 enzyme” for “rat VAP-enzyme 1”
T2 sequence (Q16853 whole entry): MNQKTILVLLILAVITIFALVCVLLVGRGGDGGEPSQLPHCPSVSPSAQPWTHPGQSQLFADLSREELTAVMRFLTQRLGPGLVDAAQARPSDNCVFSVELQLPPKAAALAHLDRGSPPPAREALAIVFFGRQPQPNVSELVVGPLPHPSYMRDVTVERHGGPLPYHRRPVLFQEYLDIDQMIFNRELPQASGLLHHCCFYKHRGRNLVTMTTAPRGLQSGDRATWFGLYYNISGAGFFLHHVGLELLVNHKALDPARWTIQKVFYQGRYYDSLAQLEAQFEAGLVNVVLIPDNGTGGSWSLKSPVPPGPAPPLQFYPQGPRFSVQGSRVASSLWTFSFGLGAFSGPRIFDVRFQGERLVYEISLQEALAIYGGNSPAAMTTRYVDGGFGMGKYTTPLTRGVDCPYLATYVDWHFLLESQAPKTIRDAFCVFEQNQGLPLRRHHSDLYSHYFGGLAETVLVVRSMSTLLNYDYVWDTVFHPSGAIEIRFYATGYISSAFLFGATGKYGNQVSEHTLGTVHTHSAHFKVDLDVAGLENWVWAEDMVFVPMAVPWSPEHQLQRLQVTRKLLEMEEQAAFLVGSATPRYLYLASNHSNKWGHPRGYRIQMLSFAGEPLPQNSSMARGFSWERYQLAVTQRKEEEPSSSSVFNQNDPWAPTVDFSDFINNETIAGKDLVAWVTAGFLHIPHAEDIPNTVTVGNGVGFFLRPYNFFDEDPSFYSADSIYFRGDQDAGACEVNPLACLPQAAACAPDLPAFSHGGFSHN

| Compound | IC50 [1] | IC50 [2] |
| --- | --- | --- |
| Cc1cc(CCC(=O)O)cnc1N1CCN(c2ncc(-c3cccc(CN(C)C(=O)CN)c3)cn2)CC1 | 5.2 nM | 9.4 nM |
| C[C@@H]1CN(c2ncc(-c3cccc(CN(C)C(=O)CN)c3)cn2)C[C@H](C)O1 | 61 nM | – |
